As usually defined, the Ki is the dissociation constant of the complex between target and ligand, obtained from inhibition or displacement. As usually defined, the logP is the decadic logarithm of the partition coefficient of the neutral form, usually between octanol and water. Usually pKa stands for the pH at which an ionisable group is half protonated. Low values mean a group that gives up its proton readily, high ones a group that holds its proton tightly.

One data set concerns the target imidazoline I2-receptors. The experiment in a line: Binding to imidazoline I2-receptors, displacement of [3H]-idazoxane (in vitro). The note with it: [3H]-idazoxane + 10 μM norepinephrine; rabbit renal cortex. The source says: (§1) EXAMPLE A: PROFILE OF BINDING TO IMIDAZOLINE I1 - AND I2 -RECEPTORS. (IN VITRO STUDY)
(§2) To measure in vitro the binding affinity of the compounds of the invention for I1 - and I2 -receptors, by determining the capacity of those compounds to displace specific radioligands of the imidazoline I1 - and I2 -receptors.
(§3) The following Table gives the radioligand used to label the receptor, the compound and the concentration selected to determine the non-specific fraction and the tissue selected.
(§4) Radioligand non specific
10^-5 M rabbit renal cortex
A general note: Displacement assays read how much labelled ligand stays bound in the presence of the test substance.

Another data set has as its target imidazoline I1-receptors. The experiment in a line: Binding to imidazoline I1-receptors, displacement of [3H]-clonidine (in vitro). The following applies: [3H]-clonidine + 10 μM norepinephrine; bovine lateral reticular nucleus.
Excerpt: as §1, §2, §3, §4
10 μM of cold clonidine

A short description of another data set: dipole moment. In kind it is physicochemical.

Regarding `NC1=NCC(COc2ccccc2F)O1` (stereo not drawn) [Example 20, 5-[(2-FLUOROPHENOXY)METHYL]-4,5-DIHYDRO-OXAZOL-2-YLAMINE], the results for the inhibition constant (Ki) on imidazoline I2-receptors and on imidazoline I1-receptors were 1300 nM and 210 nM, respectively.

In the case of `CCCNC1=NCC(COc2ccccc2C)O1` (stereo not drawn) [Example 26, N-n-PROPYL-N-[5-(2-METHYLPHENOXY)METHYL-4,5-DIHYDRO-OXAZOL-2-YL]AMINE], the values for the Ki on imidazoline I2-receptors and on imidazoline I1-receptors were 1400 nM and 670 nM, respectively.

Take `Cc1ccccc1OCC1CN=C(N)O1` (single isomer, unassigned) [Example 29, 5-[(2-METHYLPHENOXY)METHYL]-4,5-DIHYDRO-OXAZOL-2-YLAMINE]: the Ki at imidazoline I2-receptors came to 7500 nM; at imidazoline I1-receptors, 5.8 nM.

Take `NC1=NCC(COc2ccccc2[N+](=O)[O-])O1` (stereo not drawn) [Example 21, 5-[(2-NITROPHENOXY)METHYL]-4,5-DIHYDRO-OXAZOL-2-YLAMINE]: the figures for the inhibitory constant (Ki) on imidazoline I2-receptors and on imidazoline I1-receptors were 3900 nM and 500 nM, respectively.

Consider `CC(C)c1ccccc1OCC1CN=C(N)O1` (stereo not drawn) [Example 19, 5-[(2-ISOPROPYLPHENOXY)METHYL]-4,5-DIHYDRO-OXAZOL-2-YLAMINE], for which the Ki on imidazoline I2-receptors turned out to be 2100 nM; at imidazoline I1-receptors, 120 nM.

Consider `CCc1ccccc1OCC1CN=C(N)O1` (stereo not drawn) [Example 18, 5-[(2-ETHYLPHENOXY)METHYL]-4,5-DIHYDRO-OXAZOL-2-YLAMINE], for which the values for the Ki at imidazoline I2-receptors and at imidazoline I1-receptors were 1800 nM and 100 nM, respectively.

Regarding `Cc1cccc(C)c1OCC1CN=C(N)O1` (stereo not drawn) [Example 9, 5-[(2,6-DIMETHYLPHENOXY)METHYL]-4,5-DIHYDRO-OXAZOL-2-YLAMINE], the results for the Ki at imidazoline I2-receptors and at imidazoline I1-receptors were 2100 nM and 57 nM, respectively.

Consider `CCNC1=NCC(COc2ccccc2C)O1` (stereo not drawn) [Example 27, N-ETHYL-N-[5-(2-METHYLPHENOXY)METHYL-4,5-DIHYDRO-OXAZOL-2-YL]AMINE], for which the Ki on imidazoline I2-receptors stood at 1000 nM; on imidazoline I1-receptors it was 170 nM.

Turning to `Cc1cccc(OCC2CN=C(N)O2)c1C` (stereo not drawn) [Example 13, 5-[(2,3-DIMETHYLPHENOXY)METHYL]-4,5-DIHYDRO-OXAZOL-2-YLAMINE], the Ki on imidazoline I2-receptors came to 450 nM; at imidazoline I1-receptors, 64 nM.

`N#Cc1ccccc1OCC1CN=C(N)O1` (stereo not drawn) [Example 22, 5-[(2-CYANOPHENOXY)METHYL]-4,5-DIHYDRO-OXAZOL-2-YLAMINE]: the Ki on imidazoline I2-receptors turned out to be 2400 nM; at imidazoline I1-receptors, 48 nM.

Turning to `Cc1ccc(C)c(OCC2CN=C(N)O2)c1` (stereo not drawn) [Example 16, 5-[(2,5-DIMETHYLPHENOXY)METHYL]-4,5-DIHYDRO-OXAZOL-2-YLAMINE], the figures for the Ki on imidazoline I2-receptors and at imidazoline I1-receptors were 1600 nM and 85 nM, respectively.

`Cc1ccccc1OCC1CN=C(N)O1` (racemic) [Example 1, 5-[(2-METHYLPHENOXY)METHYL]-4,5-DIHYDRO-OXAZOL-2-YLAMINE]: the lipophilicity (logP) in the data set “log Po/w” was determined as 1.69. Moreover, the dipole moment in “dipole moment” (benzene) is 1.80 D; in “dipole moment” (dioxane) it was 2.07 D. The pKa in “pKa” worked out at 8.54. For the same compound, the results for the inhibitory constant (Ki) on imidazoline I2-receptors and on imidazoline I1-receptors were 920 nM and 8.5 nM, respectively.

As to `Cc1ccc(OCC2CN=C(N)O2)c(C)c1` (stereo not drawn) [Example 10, 5-[(2,4-DIMETHYLPHENOXY)METHYL]-4,5-DIHYDRO-OXAZOL-2-YLAMINE], the Ki on imidazoline I2-receptors is 3900 nM; at imidazoline I1-receptors, 160 nM.

`Cc1cc(Cl)ccc1OCC1CN=C(N)O1` (stereo not drawn) [Example 17, 5-[(4-CHLORO-2-METHYLPHENOXY)METHYL]-4,5-DIHYDRO-OXAZOL-2-YLAMINE]: the inhibitory constant (Ki) on imidazoline I2-receptors was 1000 nM; at imidazoline I1-receptors, 120 nM.

In the case of `CC(=O)c1ccccc1OCC1CN=C(N)O1` (stereo not drawn) [Example 23, 5-[(2-ACETYLPHENOXY)METHYL]-4,5-DIHYDRO-OXAZOL-2-YLAMINE], the results for the Ki on imidazoline I2-receptors and on imidazoline I1-receptors were 7700 nM and 170 nM, respectively.

Turning to `Cc1ccccc1OCC1CN=C(N)O1` (single isomer, unassigned) [Example 28, 5-[(2-METHYLPHENOXY)METHYL]-4,5-DIHYDRO-OXAZOL-2-YLAMINE], the inhibition constant Ki at imidazoline I2-receptors amounted to 13000 nM; at imidazoline I1-receptors, 370 nM.

Values taken from US5686477A, “5-(arloxymethyl)oxazolines” (Adir et Compagnie, priority 1994, dated 1997).
